Common to all, as to assay type: cell-based, Human
Assay [1] has as its system PC3 cells. In words: MTT assay, PC3 cells. The conditions noted are these: with respect to 3-BP, 72 h. The procedure: (§1) Human prostate cancer PC3, DU145 cells and RAW 264.7 macrophages were procured from the American type culture collection (ATCC). DU145 cells were grown at 37° C. in 5% CO2 in Eagle's minimum essential medium (EMEM) supplemented with 10% fetal bovine serum (FBS) and 1% penicillin/streptomycin. PC3 cells were grown in Roswell Park Memorial Institute (RPMI) 1640 medium supplemented with 10% FBS and 1% penicillin/streptomycin. RAW 264.7 macrophages were cultured in RPMI media supplemented with 10% FBS and 1% penicillin/streptomycin. Cells were passed every 3 to 4 days and restarted from frozen stocks upon reaching pass number 20.
(§2) Cytotoxicity profiles of T-AuNPs, NT-AuNPs, T-3-BPAuNPs, NT-3-BP-AuNPs, and 3-BP were studied using the MTT assay against prostate cancer PC3 and DU145 cell lines. Cells (2000 cells/well) were seeded on a 96-well plate in 100 μL of desired medium and incubated for 24 h. The cells were then treated with different constructs at varying concentrations and incubated for 12 h at 37° C. and the media was changed. […] The medium was removed, the cells were lysed with 100 μL of DMSO, and the absorbance of the purple formazan was recorded at 550 nm using a Bio-Tek Synergy HT microplate reader and background absorbance was measured at 800 nm. […] Cytotoxicity was expressed as mean percentage […] relative to the unexposed control±standard deviation (SD). […]
(In general: Tetrazolium dyes change colour on reduction, which living cells bring about.)

Another assay concerns DU145 cells. The assay is described as follows: MTT assay, DU145 cells. Particulars: with respect to 3-BP, 72 h. The procedure: as §1, §2
In assay [2] the test system is PC3 cells. In words: Apoptosis detection by flow cytometry (Annexin V-PI). Particulars: 6 h, dark. The procedure:
PC3 cells were plated at a density of 1×10^6 cells/mL and allowed to grow for 14 h. Media was changed and cells were treated with T-AuNP (1 mg/mL), NT-AuNP (1 mg/mL), T-3-BP-AuNP (14.1 μg/mL with respect to NP, 10 μM with respect to 3-BP), NT-3-BP-AuNP (13.7 μg/mL with respect to NP, 10 μM with respect to 3-BP), free 3-BP (10 μM or 1 mM) for 6 h at 37° C. As positive controls, etoposide (100 μM, incubation time: 12 h) for apoptosis and H2O2 (1 mM, incubation time: 45 min) for necrosis were used. For apoptosis detection after laser treatment, cells were treated with T-AuNP (1 mg/mL), NT-AuNP (1 mg/mL), T-3-BP-AuNP (14.1 μg/mL with respect to NP, 10 μM with respect to 3-BP), NT-3-BP-AuNP (13.7 μg/mL with respect to NP, 10 μM with respect to 3-BP), free 3-BP (10 μM) for 4 h at 37° C., irradiated with laser of 660 nm for 1 min, and further incubated for 12 h. […] Cells were counted and resuspended in 1× annexinbinding buffer at a density of ˜1×10^6 cells/mL preparing a sufficient volume to have 100 μL per assay. To 100 μL of cell suspension, 5 μL Alexa Fluor® 488 annexin V and 1 μL 100 μg/mL PI working solution were added, incubated for 15 min at room temperature, followed by addition of 400 μL 1× annexin-binding buffer, gently mixing in ice, and the samples were analyzed on the flow cytometer immediately.
Background: Flow cytometry measures light scatter and fluorescence of single cells or particles in a stream.

Assay [3] relates to PC3 cells. In words: Lactate determination. The conditions noted are these: 10 μM with respect to 3-BP, 6 h. The procedure: PC3 cells were seeded at a density of 1×10^6 cells/mL and allowed to grow for 12 h at 37° C. under 5% CO2. Cells were treated with T-AuNP (1 mg/mL), NT-AuNP (1 mg/mL), T-3-BP-AuNP (14.1 μg/mL with respect to NP, 10 μM with respect to 3-BP), NT-3-BP-AuNP (13.7 μg/mL with respect to NP, 10 μM with respect to 3-BP), free 3-BP (10 μM) for 6 h at 37° C. After 6 h, the media was removed and the cells were homogenized. The lysate and the media supernatant were added to the enzyme and substrate working reagent mixture and incubated for 30 min. Lactate concentration was measured using Bio-Tek Synergy HT microplate reader at 450 nm and comparing to a standard curve.

Assay [4] concerns PC3 cells. In words: CellTiter-Glo luminescent ATP quantification. Particulars: 10 μM with respect to 3-BP, 6 h. The procedure:
PC3 cells were seeded at a density of 1×10^6 cells/mL in a 12 well plate and allowed to grow for 12 h at 37° C. under 5% CO2. Cells were treated with T-AuNP (1 mg/mL), NT-AuNP (1 mg/mL), T-3-BP-AuNP (14.1 μg/mL with respect to NP, 10 μM with respect to 3-BP), NT-3-BP-AuNP (13.7 μg/mL with respect to NP, 10 μM with respect to 3-BP), free 3-BP (10 μM) for 6 h at 37° C. in 5% CO2 atmosphere. Control wells containing medium without cells were used to obtain background luminescence value. Plates were then equilibrated at room temperature for ˜30 min. A volume of CellTiter-Glo reagent equal to the volume of cell culture medium present in each well was added, this mixtures were mixed for 2 min in a shaker to induce cell lysis. The plates were incubated at room temperature for additional 10 min to stabilize luminescent signal. Luminescence was recorded using a plate reader. ATP quantification was carried out from a standard curve using ATP disodium salt hydrate.

Assay [5] deals with PC3 cells. The assay is described as follows: Bioenergetic assay (Seahorse XF24, ECAR and OCR). Particulars: 10 μM with respect to 3-BP, 6 h. The procedure:
Prior to the assay, XF sensor cartridges were hydrated. To each well of an XF utility plate, 1 mL of Seahorse Bioscience calibrant was added and the XF sensor cartridges were placed on top of the utility plate, and kept at 37° C. incubator without CO2 for a minimum of 12 h. PC3 cells were cultured in XF24-well cell culture microplates (Seahorse Bioscience) at a density of 5×10^4 cells/well (0.32 cm2) in 200 μL growth medium and then incubated for 24 h at 37° C. in 5% CO2 atmosphere. The three key parameters of glycolytic function: glycolysis, glycolytic capacity, and glycolytic reserve were assessed using a Seahorse XF glycolysis stress kit. After the cells were attached, an additional 100 μL growth medium was added and the cells were incubated for 24 h at 37° C. in 5% CO2 atmosphere. […] The OCR and the ECAR were measured simultaneously for 16 min to establish a baseline rate. Glycolysis, glycolytic capacity, and glycolytic reserve were calculated by subtracting the average rates before and after the addition of glucose (10 mM), ATP synthase inhibitor oligomycin (1.0 μM), and 2-deoxy-D-glucose (2-DG) (100 mM). These three compounds were injected consecutively with specific time gap and ECAR values were measured after each injection. […]

By IC50 is commonly meant the concentration at which inhibition is half-maximal. Take `O=C(O)C(=O)CBr` [3-BP, 3-bromopyruvate]: the IC50 with PC3 cells [1] stood at 271 ± 9 µM; with DU145 cells, 541 ± 37 µM. Moreover, the apoptotic activity result in the assay with PC3 cells [2] (10 μM) is “unable to show any apoptotic activity”; in the assay with PC3 cells [2] (1 mM) it was “significant apoptosis”. Further, the extracellular lactate level result in the assay with PC3 cells [3] is listed as “declined”. The intracellular lactate level result in the assay on PC3 cells [3] is reported as “declined”. In addition, in the assay with PC3 cells [4], the “level of ATP” value is on record as “decrease”. Further, the “glycolysis inhibition (ECAR response to glucose)” value with PC3 cells [5] was “did not show any glycolysis inhibitory effect”.

Source of the values: patent publication US10398663B2, “Mitochondrial delivery of 3-bromopyruvate” (priority 2014, dated 2019).
